Experimental data: PubChem BioAssay (NCI)
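Cells were grown in 96-well plates and exposed to each compound for 48 hours at five concentrations; endpoints were interpolated linearly between bracketing concentrations, or set to the highest concentration if not reached. GI50 = concentration required for 50% inhibition of growth. TGI is the concentration that stops growth completely.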

How the values were obtained:
Test in all cases: NCI tumour cell line growth inhibition, 48 h
U251 CNS = system: U251 CNS
SF-539 CNS = system: SF-539 CNS
SNB-75 CNS = system: SNB-75 CNS
NCI-H460 lung = system: NCI-H460 lung
SNB-19 CNS = system: SNB-19 CNS
786-0 renal = system: 786-0 renal
OVCAR-3 ovarian = system: OVCAR-3 ovarian
M14 melanoma = system: M14 melanoma
HCT-15 colon = system: HCT-15 colon
HL-60(TB) leukemia = system: HL-60(TB) leukemia

Row | Structure (SMILES) | TGI (U251 CNS) | TGI (SF-539 CNS) | TGI (SNB-75 CNS) | TGI (NCI-H460 lung) | TGI (SNB-19 CNS) | TGI (786-0 renal) | TGI (OVCAR-3 ovarian) | TGI (M14 melanoma) | GI50 (U251 CNS) | GI50 (HCT-15 colon) | TGI (HCT-15 colon) | GI50 (HL-60(TB) leukemia) | TGI (HL-60(TB) leukemia) | GI50 (SF-539 CNS) | GI50 (SNB-75 CNS) | GI50 (NCI-H460 lung) | GI50 (SNB-19 CNS) | GI50 (786-0 renal) | GI50 (OVCAR-3 ovarian) | GI50 (M14 melanoma)
1 | COC(=O)[C@]12CCC(C)[C@H](C)[C@H]1C1=CCC3[C@@]4(C)CC[C@H](OC(C)=O)C(C)(C)C4CC[C@@]3(C)C1(C)C(O)C2 (stereo not given in full) | > 100 µM | > 100 µM | > 100 µM | > 100 µM | > 100 µM | > 100 µM | > 100 µM | > 100 µM |  |  |  |  |  |  |  |  |  |  |  | 
2 | CCOc1cccc(/C=N/NC(=O)C(=O)Nc2cccc(C(F)(F)F)c2)c1O | > 100 µM | 11.2 µM | 57.8 µM | 60.3 µM | > 100 µM | 41.3 µM | > 100 µM | 12.6 µM | 1.46 µM | 0.459 µM | > 100 µM | 0.89 µM | 4.45 µM | 2.18 µM | 5.38 µM | 0.808 µM | 2.48 µM | 3.27 µM | 0.407 µM | 1.52 µM
3 | O=C(c1ccncc1)n1nc(-c2ccccc2)c(N=Nc2ccccc2[N+](=O)[O-])c1-c1ccccc1 |  | > 100 µM | > 100 µM |  | > 100 µM | > 100 µM | > 100 µM | > 100 µM |  |  |  |  | > 100 µM |  |  |  |  |  |  | 
4 | COc1ccc(-c2oc3c(OC)c(OC)c(OC)c(OC)c3c(=O)c2OC)cc1OC | > 100 µM | > 100 µM |  | 57 µM | > 100 µM | > 100 µM | 54.4 µM | > 100 µM |  |  | > 100 µM |  | 46.7 µM |  |  |  |  |  |  | 
5 | CN(C)CCCNC(=O)c1ccc2c(c1)oc1cc3ccccc3c(=O)n12 | 22.8 µM |  | 22 µM | 39.9 µM | > 50 µM | > 50 µM | 23.9 µM | 35.5 µM | 11.1 µM | 12.3 µM | > 50 µM | 11 µM | 30.8 µM |  | 9.44 µM | 9.96 µM | > 50 µM | > 50 µM | 9.24 µM | 14.3 µM
6 | CC[O-].CC[O-].O=S(=O)([O-])c1ccc([O-])c2ncccc12.O=S(=O)([O-])c1ccc([O-])c2ncccc12.[Ti+4] |  | > 100 µM | > 100 µM |  | > 100 µM | > 100 µM | > 100 µM | > 100 µM |  | > 100 µM | > 100 µM | 40.9 µM | > 100 µM | 67.9 µM | 72.8 µM |  | 58.3 µM | 49 µM | 47.6 µM | 63.8 µM
7 | Cc1c(C(=O)NCCN2CCOCC2)cn2ncnc(Oc3ccc(NC(=O)Nc4ccc(Cl)c(C(F)(F)F)c4)cc3)c12 | 5.36 µM | 2.14 µM |  | 2.8 µM |  | 3.33 µM |  | 2.55 µM | 1.79 µM | 1.44 µM | 2.98 µM | 0.417 µM | 1.7 µM | 0.508 µM |  | 1.16 µM |  | 1.67 µM |  | 1.08 µM
8 | CCCCN(CCCC)c1c([N+](=O)[O-])c(=O)nc2ccccn12 | > 100 µM | > 100 µM | > 100 µM | 79.4 µM | > 100 µM | > 100 µM | > 100 µM | 83.3 µM |  |  | > 100 µM |  |  |  |  |  |  |  |  | 
9 | COC(=O)c1nc(Cl)nc(Cl)c1Cl | > 100 µM | 75.3 µM | > 100 µM | > 100 µM | > 100 µM | 33.1 µM | 16.8 µM | 38.3 µM |  |  | 46.9 µM |  |  |  |  |  |  |  |  | 
10 | CN(C)/N=C(/c1nc2ccc(Cl)cc2[nH]c1=O)C(O)c1ccc(C(O)/C(=N\N(C)C)c2nc3ccc(Cl)cc3[nH]c2=O)cc1 (stereo not given) |  | > 100 µM |  | > 100 µM | > 100 µM | > 100 µM | > 100 µM | > 100 µM |  |  |  |  | > 100 µM |  |  |  |  |  |  | 
11 | CC1=C(C(=O)Nc2cccc(Cl)c2)C(c2ccccc2F)C(C(=O)Nc2cccc(Cl)c2)=C(C)N1 | 37.7 µM | 30.4 µM | 54.9 µM | 24.1 µM | > 100 µM | 32.2 µM | 25.2 µM | 18 µM |  |  |  |  | 18.7 µM |  |  |  |  |  |  | 
12 | CCOC(=O)/C=C/C1=C(c2cccs2)c2ccccc2CC1 | 39.6 µM |  | 82.5 µM | > 100 µM | > 100 µM | > 100 µM | > 100 µM | > 100 µM | 19.7 µM | 16.5 µM | 34 µM | 45 µM | > 100 µM |  | 25.5 µM | 31.1 µM | 30.9 µM | 35.5 µM | 29.5 µM | 32 µM
13 | C/C(=N\N(c1ccccc1)c1ccccc1)c1c(O)cc(C)oc1=O | > 100 µM | > 100 µM | > 100 µM | > 100 µM | > 100 µM | > 100 µM |  | > 100 µM |  |  | > 100 µM |  |  |  |  |  |  |  |  | 
14 | Cc1cc2c(cc1C)N(C(=O)CCl)CCN2C(=O)CCl | 2.88 µM | 3.24 µM | 3.1 µM | 3.33 µM | 4.1 µM | 1.58 µM | 2.46 µM | 2.52 µM | 1.39 µM | 0.45 µM | 2.42 µM |  |  | 1.65 µM | 1.48 µM | 1.7 µM | 1.81 µM | 0.657 µM | 1.11 µM | 1.08 µM
15 | Cc1cc(Cl)ccc1Nc1nc(C(F)(F)F)ccc1C(=O)N/N=C/c1ccc([N+](=O)[O-])cc1 |  | 14.4 µM | 10 µM | 7.45 µM | > 100 µM | > 40.9 µM | 2.63 µM | 7.96 µM | 0.953 µM | 0.803 µM |  |  |  | 2.65 µM | 1.71 µM | 2.28 µM | 3.61 µM | 3.09 µM | 0.777 µM | 2.18 µM
16 | CN(C)CC1CCC/C1=N\O (stereo not given) | > 100 µM | > 100 µM | > 100 µM | > 100 µM |  | > 100 µM | > 100 µM | > 100 µM |  |  | > 100 µM |  |  |  |  |  |  |  |  | 
17 | COC(=O)c1ccccc1NC(=O)C(=O)NNC(=O)c1ccncc1 |  | > 100 µM | > 100 µM | > 100 µM | > 100 µM | > 100 µM | > 100 µM | > 100 µM |  |  | > 100 µM |  | > 100 µM |  |  |  |  |  |  | 
18 | Cc1ccc(-c2cc(-c3ccco3)c(C#N)c(=O)n2C2OC(OC(=O)c3ccccc3)C(OC(=O)c3ccccc3)C2OC(=O)c2ccccc2)cc1 (stereo not given) |  | > 100 µM | > 100 µM | > 100 µM |  | > 100 µM | > 100 µM | > 100 µM |  |  | > 100 µM |  |  |  |  |  |  |  |  | 
